Experimental data from patent publication US6054598A, “Synthesis of 2-alkoxyestradiols” (Pharm-Eco Laboratories, Inc., priority 1998, dated 2000).
Like-named read-outs stand apart in the source and are kept apart here.

Legend:
[1] = system: OVCAR ovarian cancer cells; assay: NCI anticancer screen, cytotoxicity, OVCAR ovarian cancer cells; format: cell-based; conditions: Homo sapiens, read-out: cytotoxicity GI50, Ovarian OVCAR
From the text: (§1) The effects of the analogs on cancer cell growth was investigated in the National Cancer Institute (NCI) Developmental Therapeutics Program's in vitro panel of approximately 55 cell lines (Grever et al., Seminars in Oncology 19:622 (1992), Alley et al., Cancer Research 48:589 (1988) and Montes et al., J. National Cancer Institute 83:757 (1991)).

tubulin = assay: Inhibition of polymerization of purified tubulin; format: biochemical, bovine; conditions: for IC50: extent of polymerization after 20 min incubation, 26° C., 350 nm, read-out: Inhibn of Tubulin Polymn IC50
Protocol: Electrophoretically homogeneous tubulin was purified from bovine brain as described previously (Hamel et al., Biochemistry 23:4173-4184 (1984)). Determination of IC50 values for the polymerization of purified tubulin was performed as described in D'Amato et al. Proc. Natl. Acad. Sci. U.S.A. 91:3964-3968 (1994). Tubulin was preincubated at 26° C. with varying compound concentrations, reaction mixtures were chilled on ice, GTP (required for the polymerization reaction) was added, and polymerization was followed at 26° C. by turbidimetry at 350 nm in Gilford recording spectrophotometers equipped with electronic temperature controllers. Four instruments were used, and two control reaction mixtures were present in each experiment. The extent of polymerization after a 20 min incubation was determined (the values for the two controls were usually within 5% of each other). IC50 values were determined graphically. […] Inhibition of colchicine binding to tubulin was performed as described previously (D. Amato et al., Proc. Natl. Acad. Sci. U.S.A. 91:3964-3968 (1994)). […] Incubation was for 30 min at 37° C.

[2] = system: SN12--C renal cancer cells; assay: NCI anticancer screen, cytotoxicity, SN12-C renal cancer cells; format: cell-based; conditions: Homo sapiens, SN12C, read-out: cytotoxicity GI50, Renal SN12-C
From the text: as §1

solid tumors = conditions: in mice; Fotsis et al., Nature 368:237 (1994); cited from earlier work
[3] = system: SF-539 central nervous system (CNS) cancer cells; assay: NCI anticancer screen, cytotoxicity, SF-539 central nervous system (CNS) cancer cells; format: cell-based; conditions: Homo sapiens
From the text: as §1

UACC-62 melanoma cells = assay: NCI anticancer screen, cytotoxicity, UACC-62 melanoma cells; format: cell-based; conditions: Homo sapiens
From the text: as §1

[4] = system: HCT-116 colon cancer cells; assay: NCI anticancer screen, cytotoxicity, HCT-116 colon cancer cells; format: cell-based; conditions: Homo sapiens
From the text: as §1

[5] = system: MDA-MB-435 breast cancer cells; assay: NCI anticancer screen, cytotoxicity, MDA-MB-435 breast cancer cells; format: cell-based; conditions: Homo sapiens
From the text: as §1

[6] = system: human cancer cell lines (approximately 55); assay: NCI anticancer screen, in vitro panel of approximately 55 cell lines; format: cell-based; conditions: for GI50: read-out: cytotoxicity MGM (mean graph midpoint for all human cancer cell lines tested)
From the text: as §1

[7] = system: DU-145 prostate cancer cells; assay: NCI anticancer screen, cytotoxicity, DU-145 prostate cancer cells; format: cell-based; conditions: Homo sapiens
From the text: as §1

[8] = system: HOP-62 non-small-cell lung cancer cells; assay: NCI anticancer screen, cytotoxicity, HOP-62 non-small-cell lung cancer cells; format: cell-based; conditions: Homo sapiens
From the text: as §1

[9] = SF-539, read-out: cytotoxicity GI50, CNS SF-539
[10] = UACC-62, read-out: cytotoxicity GI50, Melanoma UACC-62
[11] = HCT-116, read-out: cytotoxicity GI50, Colon HCT-116
[12] = MDA-MB-435, read-out: cytotoxicity GI50, Breast MDA-MB-435
[13] = DU-145, read-out: cytotoxicity GI50, Prostate DU-145
[14] = HOP-62, read-out: cytotoxicity GI50, Lung HOP-62

Q: For `COc1cc2c(cc1O)CC[C@@H]1[C@@H]2CC[C@]2(C)[C@@H](O)CC[C@@H]12` [Compound 1, 2-methoxy estradiol, reference compound], which GI50 ([1]; OVCAR, concentration corresponding to 50% growth inhibition) is on record?
A: The GI50 was 210 nM.

Q: And the IC50 (tubulin)?
A: The IC50 was 2900 ± 600 nM.

Q: And the GI50 ([2]; SN12-C, concentration corresponding to 50% growth inhibition)?
A: Its GI50 is 950 nM.

Q: What about the “apparent signs of toxicity at tumor growth inhibiting doses” value (solid tumors) of the same compound?
A: The value was “no apparent signs of toxicity”.

Q: What about the “inhibition of growth of solid tumors” value (solid tumors) of the same compound?
A: The value was “inhibits their growth”.

Q: What about the “inhibition of neovascularization of solid tumors” value (solid tumors) of the same compound?
A: The value was “potent inhibitor of neovascularization of solid tumors”.

Q: What about the GI50 ([3]; SF-539, concentration corresponding to 50% growth inhibition, read-out: cytotoxicity GI50, CNS SF-539) of the same compound?
A: The GI50 was 320 nM.

Q: And the GI50 (UACC-62 melanoma cells; UACC-62, concentration corresponding to 50% growth inhibition, read-out: cytotoxicity GI50, Melanoma UACC-62)?
A: The GI50 was 360 nM.

Q: What about the GI50 ([4]; HCT-116, concentration corresponding to 50% growth inhibition, read-out: cytotoxicity GI50, Colon HCT-116) of the same compound?
A: The GI50 was 470 nM.

Q: What about the GI50 ([5]; MDA-MB-435, concentration corresponding to 50% growth inhibition, read-out: cytotoxicity GI50, Breast MDA-MB-435) of the same compound?
A: Its GI50 is 80 nM.

Q: And the GI50 ([6]; approximately 55 human cancer cell lines, GI50)?
A: Its GI50 is 1300 nM.

Q: And the GI50 ([7]; DU-145, concentration corresponding to 50% growth inhibition, read-out: cytotoxicity GI50, Prostate DU-145)?
A: Its GI50 is 1800 nM.

Q: And the GI50 ([8]; HOP-62, concentration corresponding to 50% growth inhibition, read-out: cytotoxicity GI50, Lung HOP-62)?
A: Its GI50 is 700 nM.

Q: Which GI50 [1] does the source give for `C[C@]12CC[C@@H]3c4cc(OCC(F)(F)F)c(O)cc4CC[C@H]3[C@@H]1CC[C@@H]2O` [Compound 9, 2-(2',2',2'-Trifluoroethoxy)estra-1,3,5(10)-Trien-3,17β-Diol] here?
A: Its GI50 is 460 nM.

Q: And the IC50 (tubulin)?
A: Its IC50 is 1700 nM.

Q: And the GI50 [2]?
A: The GI50 was 4460 nM.

Q: And the GI50 [3, 9]?
A: The GI50 was 1380 nM.

Q: And the GI50 (UACC-62 melanoma cells; [10])?
A: Its GI50 is 2320 nM.

Q: And the GI50 [4, 11]?
A: The GI50 was 3220 nM.

Q: What about the GI50 [5, 12] of the same compound?
A: Its GI50 is 280 nM.

Q: And the GI50 ([6]; Homo sapiens)?
A: The GI50 was 2630 nM.

Q: What about the GI50 [7, 13] of the same compound?
A: The GI50 was 7050 nM.

Q: What about the GI50 [8, 14] of the same compound?
A: Its GI50 is 11600 nM.

Q: Which GI50 [1] does the source give for `CCOc1cc2c(cc1O)CC[C@@H]1[C@@H]2CC[C@]2(C)[C@@H](O)CC[C@@H]12` [Compound 10, 2-Ethoxyestra-1,3,5(10)-trien03,17β-diol] here?
A: The GI50 was 16 nM.

Q: What about the “activity on tubulin polymerization relative to 2-methoxy estradiol (1)” value (tubulin; compared with 2-methoxy estradiol (1)) of the same compound?
A: Its value is “over three times more active”.

Q: What about the IC50 (tubulin) of the same compound?
A: Its IC50 is 910 ± 500 nM.

Q: And the GI50 [2]?
A: The GI50 was 39 nM.

Q: What about the GI50 [3, 9] of the same compound?
A: Its GI50 is 14 nM.

Q: And the GI50 (UACC-62 melanoma cells; [10])?
A: Its GI50 is 16 nM.

Q: And the GI50 [4, 11]?
A: The GI50 was 26 nM.

Q: What about the GI50 [5, 12] of the same compound?
A: Its GI50 is under 10 nM.

Q: What about the GI50 ([6]; Homo sapiens) of the same compound?
A: The GI50 was 76 nM.

Q: And the “activity against all the cell lines listed in Table 1 relative to 2-methoxy estradiol (1)” value ([6]; all the cell lines listed in Table 1, compared with 2-methoxy estradiol (1))?
A: Its value is “more active”.

Q: What about the GI50 [7, 13] of the same compound?
A: The GI50 was 65 nM.

Q: And the GI50 [8, 14]?
A: Its GI50 is 18 nM.
